Test: xn = mol fraction of the nth substance listed
Conditions: 101 kPa, Liquid

CN(CCO)CCO [N-methyldiethanolamine] + O
mass density [kg/m3]
Conditions | 298.15 K | 303.15 K | 308.15 K | 313.15 K | 318.15 K | 323.15 K
x1 = 0.0128 | 1004.06 | 1002.48 | 1000.7 | 998.731 | 996.584 | 994.273
x1 = 0.0212 | 1008.41 | 1006.7 | 1004.8 | 1002.72 | 1000.48 | –
x1 = 0.0498 | 1020.08 | 1017.93 | 1015.63 | 1013.18 | 1010.59 | –
x1 = 0.0645 | 1026.39 | 1023.98 | 1021.43 | 1018.77 | 1015.98 | –
x1 = 0.0799 | 1030.85 | 1028.25 | 1025.53 | 1022.69 | 1019.74 | –
x1 = 0.1332 | 1042.8 | 1039.65 | 1036.42 | 1033.1 | 1029.71 | –
x1 = 0.1557 | 1045.44 | 1042.17 | 1038.83 | 1035.41 | 1031.92 | –
x1 = 0.1944 | 1049.91 | 1046.42 | 1042.86 | 1039.23 | 1035.54 | –
x1 = 0.2407 | 1050.84 | 1048.11 | 1044.45 | 1040.73 | 1036.95 | –
x1 = 0.2725 | 1052.41 | 1048.8 | 1045.14 | 1041.41 | 1037.63 | –
x1 = 0.366 | 1052.54 | 1048.78 | 1044.97 | 1041.1 | 1037.2 | –
x1 = 0.4302 | 1050.97 | 1047.2 | 1043.38 | 1039.51 | 1035.6 | –
x1 = 0.5642 | 1046.85 | 1043.08 | 1039.28 | 1035.45 | 1031.61 | –
x1 = 0.6687 | 1041.44 | 1037.68 | 1033.89 | 1030.08 | 1026.25 | –
x1 = 0.7531 | 1039.27 | 1035.87 | 1031.92 | 1028.73 | 1025.02 | –

— the NIST ThermoML archive (doi:10.1021/je800416y)
